What was measured:
[1] = test system: RKO colon adenocarcinoma cells (RKOp27) arrested by expression of ectopic p27Kip1; experiment: Alamar Blue cell viability assay on RKOp27 cells arrested by Ponasterone A-induced p27Kip1 (cell cycle specific mode of action); type: cell-based; settings: Homo sapiens, RKOp27, 72 h, cells arrested by p27Kip1 induced with 10 μM Ponasterone A, 72 hours incubation, read-out: IC50 RKO p27 arrested
Procedure, shortened: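 Viability measured by Alamar Blue fluorescence (ex 544, em 590 nm) after 72 h, 37 °C compound exposure in quadruplicate, normalized to untreated cells as 100%. Cells were p27Kip1-arrested RKOp27, induced with 10 μM Ponasterone A at seeding; compound added 24 h later.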

[2] = test system: RKO (RKOp27) human colon adenocarcinoma cells; experiment: Alamar Blue cell viability assay, anti-proliferative/cytotoxic activity on proliferating RKOp27 cells; type: cell-based; settings: absence of Ponasterone A, 72 hours incubation, read-out: IC50 RKO p27 proliferating
Procedure, shortened: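 RKOp27 subclone of RKO cells, 4000/well in DMEM with 10% FCS, was treated 24 h after seeding with semi-log compound dilutions in quadruplicate for 72 h at 37 °C, 5% CO2. Alamar Blue fluorescence (ex 544/em 590 nm) was read as % viability of untreated cells, and IC50 was taken from concentration-effect curves.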

SMILES: CCOC(=O)N1CCc2c(sc(NC(=O)/C=C/c3cccc(OC)c3OCC)c2C#N)C1 [Example 96, 3-Cyano-2-[(E)-3-(2-ethoxy-3-methoxy-phenyl)-allanoylamino]-4,7-dihydro-5H-thieno[2,3-c]pyridine-6-carboxylic acid ethyl ester]
- IC50 [1]: ≥ 100 µM
- IC50 [2]: ≤ 2 µM

SMILES: CCOC(=O)N1CCc2c(sc(NC(=O)/C=C/c3cccn3C)c2C#N)C1 [Example 97, 3-Cyano-2-[(E)-3-(1-methyl-1H-pyrrol-2-yl)-allanoylamino]-4,7-dihydro-5H-thieno[2,3-c]pyridine-6-carboxylic acid ethyl ester]
- IC50 [1]: ≥ 100 µM
- IC50 [2]: ≤ 2 µM

SMILES: CCOC(=O)N1CCc2c(sc(NC(=O)/C=C/c3ccccc3OC(C)C)c2C#N)C1 [Example 98, 3-Cyano-2-[(E)-3-(2-isopropoxy-phenyl)-allanoylamino]-4,7-dihydro-5H-thieno[2,3-c]pyridine-6-carboxylic acid ethyl ester]
- IC50 [1]: ≥ 100 µM
- IC50 [2]: ≤ 2 µM

SMILES: CCCOc1ccccc1/C=C/C(=O)Nc1sc2c(c1C#N)CCN(C(=O)OCC)C2 [Example 99, 3-Cyano-2-[(E)-3-(2-propoxy-phenyl)-allanoylamino]-4,7-dihydro-5H-thieno[2,3-c]pyridine-6-carboxylic acid ethyl ester]
- IC50 [1]: ≥ 50 µM
- IC50 [2]: ≤ 0.5 µM

SMILES: CCOC(=O)N1CCc2c(sc(NC(=O)/C=C/c3ccccn3)c2C#N)C1 [Example 100, 3-Cyano-2-((E)-3-pyridin-2-yl-allanoylamino)-4,7-dihydro-5H-thieno[2,3-c]pyridine-6-carboxylic acid ethyl ester]
- IC50 [1]: ≥ 100 µM
- IC50 [2]: ≤ 2 µM

SMILES: CCOC(=O)N1CCc2c(sc(NC(=O)/C=C/c3cc(OC)ccc3OC)c2C#N)C1 [Example 102, 3-Cyano-2-[(E)-3-(2,5-dimethoxy-phenyl)-allanoylamino]-4,7-dihydro-5H-thieno[2,3-c]pyridine-6-carboxylic acid ethyl ester]
- IC50 [1]: ≥ 100 µM
- IC50 [2]: ≤ 2 µM

SMILES: CCOC(=O)N1CCc2c(sc(NC(=O)/C=C/c3ccc[nH]3)c2C#N)C1 [Example 103, 3-Cyano-2-((E)-3-1-H-pyrrol-2-yl-allanoylamino)-4,7-dihydro-5H-thieno[2,3-c]pyridine-6-carboxylic acid ethylester]
- IC50 [1]: ≥ 100 µM
- IC50 [2]: ≤ 2 µM

SMILES: CCOC(=O)N1CCc2c(sc(NC(=O)/C=C/c3ccccc3Oc3ccccc3)c2C#N)C1 [Example 104, 3-Cyano-2-[(E)-3-(2-phenoxy-phenyl)-allanoylamino]-4,7-dihydro-5H-thieno[2,3-c]pyridine-6-carboxylic acid ethyl ester]
- IC50 [1]: ≥ 100 µM
- IC50 [2]: ≤ 2 µM

SMILES: CCOC(=O)N1CCc2c(sc(NC(=O)/C=C/c3c(OC)cccc3OC)c2C#N)C1 [Example 108, 3-Cyano-2-[(E)-3-(2,6-dimethoxy-phenyl)-allanoylamino]-4,7-dihydro-5H-thieno[2,3-c]pyridine-6-carboxylic acid ethyl ester]
- IC50 [1]: ≥ 100 µM
- IC50 [2]: ≤ 2 µM

SMILES: CCOC(=O)N1CCc2c(sc(NC(=O)/C=C/c3cccc4c3OCO4)c2C#N)C1 [Example 111, 2-((E)-3-Benzo[1,3]dioxol-4-yl-allanoylamino)-3-cyano-4,7-dihydro-5H-thieno[2,3-c]pyridine-6-carboxylic acid ethyl ester]
- IC50 [1]: ≥ 100 µM
- IC50 [2]: ≤ 2 µM

SMILES: N#Cc1c(NC(=O)/C=C/c2ccccc2)sc2c1CCN(C(=O)OCCN1CCOCC1)C2 [Example 112, 3-Cyano-2-((E)-3-phenyl-allanoylamino)-4,7-dihydro-5H-thieno[2,3-c]pyridine-6-carboxylic acid 2-morpholin-4-yl-ethyl ester]
- IC50 [1]: ≥ 100 µM
- IC50 [2]: ≤ 2 µM

SMILES: CN(C)CCOC(=O)N1CCc2c(sc(NC(=O)/C=C/c3ccccc3)c2C#N)C1 [Example 113, 3-Cyano-2-((E)-3-phenyl-allanoylamino)-4,7-dihydro-5H-thieno[2,3-c]pyridine-6-carboxylic acid 2-dimethylamino-ethyl ester]
- IC50 [1]: ≥ 50 µM
- IC50 [2]: ≤ 0.5 µM

SMILES: N#Cc1c(NC(=O)/C=C/c2ccccc2)sc2c1CCN(C(=O)OCCN1CCCC1)C2 [Example 114]
- IC50 [1]: ≥ 100 µM
- IC50 [2]: ≤ 2 µM

SMILES: N#Cc1c(NC(=O)/C=C/c2ccccc2)sc2c1CCN(C(=O)OCCc1ccccn1)C2 [Example 116, 3-Cyano-2-((E)-3-phenyl-allanoylamino)-4,7-dihydro-5H-thieno[2,3-c]pyridine-6-carboxylic acid 2-pyridin-2-yl-ethyl ester]
- IC50 [1]: ≥ 100 µM
- IC50 [2]: ≤ 2 µM

SMILES: N#Cc1c(NC(=O)/C=C/c2ccccc2)sc2c1CCN(C(=O)OCCCc1ccncc1)C2 [Example 117, 3-Cyano-2-((E)-3-phenyl-allanoylamino)-4,7-dihydro-5H-thieno[2,3-c]pyridine-6-carboxylic acid 3-pyridin-4-yl-propyl ester]
- IC50 [1]: ≥ 100 µM
- IC50 [2]: ≤ 2 µM

SMILES: COCCOC(=O)N1CCc2c(sc(NC(=O)/C=C/c3ccccc3)c2C#N)C1 [Example 118, 3-Cyano-2-((E)-3-phenyl-allanoylamino)-4,7-dihydro-5H-thieno[2,3-c]pyridine-6-carboxylic acid 2-methoxy-ethyl ester]
- IC50 [1]: ≥ 100 µM
- IC50 [2]: ≤ 2 µM

SMILES: N#Cc1c(NC(=O)/C=C/c2ccccc2)sc2c1CCN(C(=O)OCCCN1CCOCC1)C2 [Example 120, 3-Cyano-2-((E)-3-phenyl-allanoylamino)-4,7-dihydro-5H-thieno[2,3-c]pyridine-6-carboxylic acid 3-morpholin-4-yl-propyl ester]
- IC50 [1]: ≥ 100 µM
- IC50 [2]: ≤ 2 µM

SMILES: Cc1ncc([N+](=O)[O-])n1CCOC(=O)N1CCc2c(sc(NC(=O)/C=C/c3ccccc3)c2C#N)C1 [Example 122, 3-Cyano-2-((E)-3-phenyl-allanoylamino)-4,7-dihydro-5H-thieno[2,3-c]pyridine-6-carboxylic acid 2-(2-methyl-5-nitro-imidazol-1-yl)-ethyl ester]
- IC50 [1]: ≥ 100 µM
- IC50 [2]: ≤ 2 µM

SMILES: N#Cc1c(NC(=O)/C=C/c2ccccc2)sc2c1CCN(C(=O)OCCCc1ccccn1)C2 [Example 124, 3-Cyano-2-((E)-3-phenyl-allanoylamino)-4,7-dihydro-5H-thieno[2,3-c]pyridin-6-carboxylic acid 3-pyridin-2-yl-propyl ester]
- IC50 [1]: ≥ 50 µM
- IC50 [2]: ≤ 0.5 µM

SMILES: N#Cc1c(NC(=O)/C=C/c2ccccc2)sc2c1CCN(C(=O)OCCCc1cccnc1)C2 [Example 125, 3-Cyano-2-((E)-3-phenyl-allanoylamino)-4,7-dihydro-5H-thieno[2,3-c]pyridine-6-carboxylic acid 3-pyridin-3-yl-propyl ester]
- IC50 [1]: ≥ 100 µM
- IC50 [2]: ≤ 2 µM

SMILES: N#Cc1c(NC(=O)/C=C/c2ccccc2)sc2c1CCN(C(=O)OCCc1ccncc1)C2 [Example 126, 3-Cyano-2-((E)-3-phenyl-allanoylamino)-4,7-dihydro-5H-thieno[2,3-c]pyridine-6-carboxylic acid 2-pyridin-4-yl-ethyl ester]
- IC50 [1]: ≥ 100 µM
- IC50 [2]: ≤ 2 µM

SMILES: CC1(C)OCC(COC(=O)N2CCc3c(sc(NC(=O)/C=C/c4ccccc4)c3C#N)C2)O1 (centres unmarked) [Example 127, 3-Cyano-2-((E)-3-phenyl-allanoylamino)-4,7-dihydro-5H-thieno[2,3-c]pyridine-6-carboxylic acid 2,2-dimethyl-[1,3]dioxolan-4-ylmethyl ester]
- IC50 [1]: ≥ 100 µM
- IC50 [2]: ≤ 2 µM
